# Where a SMILES comes first, the peptide text is derived from it. [ ]: non-standard residue; d: D form. αMeF = C[C@](N)(Cc1ccccc1)C(=O)O; Aib = CC(C)(N)C(=O)O
# How the values were obtained:
# [1] = Plasma pharmacokinetics after single subcutaneous administration (LC-MS); format: in vivo, Sprague-Dawley rats; details: Dose 16.6 mg/kg s.c.
# Procedure: (§1) 10 Male Sprague-Dawley rats were used. The rats were divided into two groups of 5 for determination of plasma pharmacokinetics and tissue distribution, by single subcutaneous administration at the dose of 16.6 mg/kg in a volume of 1 mL/kg. Blood samples were taken after 0.25, 0.5, 1, 2, 4, 6, 8 and 24 hours; subsequently, in the second group of rats, tissue samples were taken at Tmax. The kinetic equation, Cmax, Tmax, plasma half-life and AUC were determined. The concentrations were measured by LC-MS.
# [2] = tested on: RCS/Kyo rat (Royal College of Surgeons rat); test: Efficacy in RCS/KYO rats by intravitreal or subcutaneous administration (retinal and ONL thickness under the microscope); format: in vivo; details: for Retinal thickness % of control / Thickness of ONL % of control / Thickness of ONL (outer nuclear layer): age 49 days; for Retinal thickness: measured at age 49 days
# Description: The RCS/Kyo rat (Royal College of Surgeons rat) represents the most commonly used model in the study of this eye disease. RCS rats present retinal degeneration that makes them the ideal model for the study of this disease. […] The epithelial cells of the retina in these animals are unable to ingest the […] photoreceptor cells, and those photoreceptors therefore die.
# 45 male and female RCS/Kyo rats, aged 14/21 days, were employed, using the tetrapeptide Ac-Arg-Aib-Arg-α(Me)Phe-NH2, formulated as reported in example 1A, at the concentration of 1.2 mg/mL for intravitreal injection, or 7.6 mg/mL for subcutaneous injection.
# The treatment regimen used is set out below:
# After euthanasia of the rats at the age of 49 days, the thickness of the retina in the various groups was measured under the microscope:
# The thickness of the outer layer of granules (outer nuclear layer, ONL, cell body of cones and rods) was also measured.
# [3] = tested on: mice with oxygen-induced retinopathy; details: cited from earlier work
# [4] = Tissue distribution at Tmax after single subcutaneous administration (LC-MS); format: in vivo, Sprague-Dawley rats; details: at Tmax after 16.6 mg/kg s.c., rat
# Procedure: as §1
# As will be seen, the kidney is the organ with the highest values compared with the other tissues. However, in the eyes, which represent the target tissue, the peptide is present with a tissue plasma ratio of about 5.
# [5] = male, Sprague-Dawley, sc, rat plasma
# [6] = group S-ivt-sd-t: intravitreal, therapeutic, single dose 4 μg at day 22
# [7] = group S-sc-rd-p: subcutaneous, preventive, 1800 μg from day 14, 6 times a week for 5 weeks
# [8] = group S-sc-rd-t: subcutaneous, therapeutic, 1800 μg from day 22, 6 times a week for 4 weeks
# [9] = intravitreal injection, OIR mice
smiles,measurement,setting,value
CC(=O)N[C@@H](CCCNC(=N)N)C(=O)NC(C)(C)C(=O)N[C@@H](CCCNC(=N)N)C(=O)N[C@@](C)(Cc1ccccc1)C(N)=O [Ac-Arg-Aib-Arg-α(Me)Phe-NH2] (Ac-R[Aib]R[αMeF]-NH2),Kelim,[1]; rat plasma,0.309 ± 0.029 h⁻¹
same,Tmax,"[1]; male, Sprague-Dawley, rat, plasma, sc, 16.6 mg/kg",~2 h
same,AUC(0-inf),[1]; [5],39300 ± 4010 ng·h/mL
same,AUC(0-t),[1]; [5],39300 ± 3990 ng·h/mL
same,Cmax,[1]; [5],5910 ± 1180 ng/mL
same,half-life,[1]; [5],2.26 ± 0.226 h
same,Effect on retinal structure,[2]; RCS/KYO rats,restore nearly all the strongly deteriorated retinal structure
same,Change of retinal thickness,"[2]; all the treated groups, preventive treatment to a lesser extent",considerable increase in retinal thickness
same,Retinal thickness % of control,[2]; [6],110 % of control
same,Thickness of ONL % of control,[2]; [6],134 % of control
same,Thickness of ONL (outer nuclear layer),[2]; [6],12.09 μm
same,Retinal thickness,"[2]; group S-ivt-sd-t: intravitreal, therapeutic, single dose 4 μg at day 22 after birth",132.08 μm
same,Retinal thickness % of control,[2]; [7],130 % of control
same,Thickness of ONL % of control,[2]; [7],196 % of control
same,Thickness of ONL (outer nuclear layer),[2]; [7],17.64 μm
same,Retinal thickness,[2]; [7],155.25 μm
same,Retinal thickness % of control,[2]; [8],153 % of control
same,Thickness of ONL % of control,[2]; [8],196 % of control
same,Thickness of ONL (outer nuclear layer),[2]; [8],17.62 μm
same,Retinal thickness,[2]; [8],182.67 μm
same,Change of ONL thickness,[2]; repeated subcutaneous doses,double the thickness of the layer
same,Increase of the photoreceptor layer,[2]; single dose of 4 μg per eye,34%
same,Effect on inflammatory markers,[3]; [9],reducing the anti-inflammatory markers
same,Effect on retinal neovascularization,[3]; [9],reducing retinal neovascularization
same,Effect on the blood-retinal barrier,[3]; [9],repairing dysfunctions of the blood-retinal barrier
same,"Effect on the structure of the retina (words, literature)","[3]; reported in IOVS (2015), 56(4) 2392-2407",does not modify the structure of the retina
same,"Tissue plasma ratio, eyes",[4],about 5
